Measured values: patent US7253299B2, “Process for purifying n2-(1(s)-ethoxycarbonyl-3-phenylpropyl)-n6-thifluoroacetyl-l-lysine” (Kaneka Corporation, priority 2001, dated 2007)

Experiment: Solubility of polymorphs in water/acetonitrile mixed solvent (saturated solution, HPLC)
Format: physicochemical
Conditions: water/acetonitrile mixed solvent (water/acetonitrile volume ratio 0.25), 15° C., ordinary pressure
Method: A 50 ml four-neck flask was charged with 30 ml of a water/acetonitrile mixed solvent (water/acetonitrile volume ratio 0.25). After cooling the solvent to 5° C. with stirring, 5 g of each of polymorphs (I form, […] and […]) of N^2-(1(S)-ethoxycarbonyl-3-phenylpropyl)-N^6-trifluoroacetyl-L-lysine was added thereto, and the temperature was elevated to a predetermined temperature at a rate of 10° C./hour. After reaching the predetermined temperature, the solution was maintained at that temperature for about 1 hour. A sample of the resulting saturated solution was taken out, and the concentration (% by weight) of N^2-(1(S)-ethoxycarbonyl-3-phenylpropyl)-N^6-trifluoroacetyl-L-lysine was measured by HPLC analysis to determine the solubility at that temperature.

Row | SMILES | solubility
1 | CCOC(=O)[C@H](CCc1ccccc1)N[C@@H](CCCCNC(=O)C(F)(F)F)C(=O)O [I form, N^2-(1(S)-ethoxycarbonyl-3-phenylpropyl)-N^6-trifluoroacetyl-L-lysine] | about 2.5 % by weight
2 | CCOC(=O)[C@H](CCc1ccccc1)N[C@@H](CCCCNC(=O)C(F)(F)F)C(=O)O [II form, N^2-(1(S)-ethoxycarbonyl-3-phenylpropyl)-N^6-trifluoroacetyl-L-lysine] | about 2.7 % by weight
3 | CCOC(=O)[C@H](CCc1ccccc1)N[C@@H](CCCCNC(=O)C(F)(F)F)C(=O)O [III form, N^2-(1(S)-ethoxycarbonyl-3-phenylpropyl)-N^6-trifluoroacetyl-L-lysine] | about 3.1 % by weight
